These results are taken from ChEMBL document CHEMBL1201862, “PubChem BioAssay data set” (2004).

Test systems include A498; SF-295; NCI/ADR-RES; HCT-15; UACC-257; HOP-62; COLO 205; LOX IMVI; Malme-3M; MDA-MB-435; SF-268; TK-10; SK-MEL-28; SF-539; MCF7; Hs-578T; EKVX; HOP-92; OVCAR-4.
Holding throughout (test): growth of human tumour cells (NCI), 48 h

Structures are written as SMILES.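 Interpolation was linear, between the two tested concentrations surrounding the appropriate level; five concentrations were tested over 48 hours in 96-well plates. The concentration for 50% growth inhibition is given as GI50.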 Active and inactive are the calls of the source. Rule as the data show it: active = GI50 up to about 1.1 µM and inactive = higher.

For the molecule `Clc1cccc(/C=c2\nc(-c3ccccc3)n3c2nc2ccccc23)c1`, the GI50 with A498 was > 100 µM (inactive); in the experiment with SF-295, 73.3 µM (inactive); with NCI/ADR-RES, > 100 µM (inactive); in the experiment on HCT-15, greater than 100 µM; in the experiment on UACC-257, > 100 µM (inactive); with HOP-62, 71.3 µM (inactive). The GI50 in the experiment with COLO 205 is > 100 µM (inactive); in the experiment on LOX IMVI, > 100 µM (inactive); in the experiment with Malme-3M it was > 100 µM (inactive); in the experiment on MDA-MB-435 it was > 100 µM (inactive); in the experiment on SF-268, 40.8 µM (inactive); in the experiment with TK-10, 87.1 µM (inactive). In addition, the GI50 in the experiment on SK-MEL-28 is > 100 µM (inactive); in the experiment with SF-539 it was 34.4 µM (inactive); in the experiment with MCF7 it was > 100 µM (inactive); in the experiment with Hs-578T, 98.6 µM (inactive); in the experiment on EKVX, 28.5 µM (inactive); with HOP-92, 4.38 µM (inactive). Also, in the experiment on OVCAR-4, the GI50 is > 100 µM (inactive).
With `COc1cc(CNc2ccc3nc4n(c(=O)c3c2)CCCCC4)cc(OC)c1OC`, the GI50 with A498 was 50.6 µM (inactive); in the experiment on SF-295, 47.9 µM (inactive); with NCI/ADR-RES it was 40.4 µM (inactive); in the experiment on HCT-15 it was 45.6 µM; with UACC-257, 24.3 µM (inactive); with HOP-62, 95.1 µM (inactive). In addition, the GI50 in the experiment with COLO 205 was 35.9 µM (inactive); in the experiment on LOX IMVI, 55.2 µM (inactive); with Malme-3M, 30.7 µM (inactive); with MDA-MB-435 it was 31.7 µM (inactive); in the experiment with SF-268, 86.7 µM (inactive); in the experiment on TK-10, 84.7 µM (inactive). In addition, the GI50 in the experiment on SK-MEL-28 was 43.4 µM (inactive); in the experiment with SF-539, > 100 µM (inactive); in the experiment with MCF7, 32.2 µM (inactive); with Hs-578T, 51.9 µM (inactive); in the experiment with EKVX, 36.6 µM (inactive); with HOP-92, 76 µM (inactive). In addition, in the experiment with OVCAR-4, the GI50 is 22.7 µM (inactive).
Turning to `N=C(CC(=O)NOC(=O)c1ccccc1)NOC(=O)c1ccccc1`, the GI50 in the experiment on A498 was 31.4 µM (inactive); in the experiment on SF-295 it was 18.4 µM (inactive); with NCI/ADR-RES it was 25.5 µM (inactive); with HCT-15, 38.5 µM; in the experiment on UACC-257, > 100 µM (inactive); in the experiment with HOP-62 it was 44.8 µM (inactive). The GI50 in the experiment on COLO 205 was 26.6 µM (inactive); in the experiment on LOX IMVI it was 17.7 µM (inactive); in the experiment on Malme-3M, > 100 µM (inactive); in the experiment with MDA-MB-435 it was 36.3 µM (inactive); in the experiment on SF-268, 23.2 µM (inactive); with TK-10, 52 µM (inactive). For the same molecule, the GI50 in the experiment with SK-MEL-28 is 27.5 µM (inactive); in the experiment with SF-539 it was 22.1 µM (inactive); with MCF7 it was 25.8 µM (inactive); with Hs-578T, 36.2 µM (inactive); in the experiment with EKVX, 30.9 µM (inactive); in the experiment on HOP-92 it was 39.4 µM (inactive). Further, the GI50 in the experiment on OVCAR-4 is 18.3 µM (inactive).
On to `Cc1n2nc(N)sc2n[n+]1Cc1ccccc1`, for which the GI50 was > 100 µM (inactive) in the experiment with A498; > 100 µM (inactive) in the experiment on SF-295; > 100 µM (inactive) in the experiment on NCI/ADR-RES; greater than 100 µM in the experiment on HCT-15; > 100 µM (inactive) in the experiment with UACC-257; 72.6 µM (inactive) in the experiment with HOP-62. Also, the GI50 is 21.4 µM (inactive) in the experiment on COLO 205; > 100 µM (inactive) with LOX IMVI; > 100 µM (inactive) in the experiment with Malme-3M; > 100 µM (inactive) with MDA-MB-435; 48.8 µM (inactive) in the experiment on SF-268; > 100 µM (inactive) with TK-10. The GI50 with SK-MEL-28 is > 100 µM (inactive); in the experiment on SF-539 it was > 100 µM (inactive); in the experiment on MCF7 it was > 100 µM (inactive); in the experiment with Hs-578T, > 100 µM (inactive); in the experiment on EKVX, 97.5 µM (inactive); in the experiment with OVCAR-4, > 100 µM (inactive).
For the molecule `CC(C)(C)c1cc(/C=C2/NC(=O)NC2=O)cc(C(C)(C)C)c1O`, the GI50 with A498 was 14 µM (inactive); with SF-295, 14.8 µM (inactive); in the experiment on NCI/ADR-RES, 14.1 µM (inactive); in the experiment on HCT-15, 13.2 µM; in the experiment on UACC-257 it was 16 µM (inactive); in the experiment with HOP-62, 17.1 µM (inactive). For the same molecule, the GI50 in the experiment on COLO 205 was 14.4 µM (inactive); in the experiment on LOX IMVI it was 15.8 µM (inactive); in the experiment on Malme-3M it was 19.5 µM (inactive); in the experiment on MDA-MB-435, 17.3 µM (inactive); with SF-268, 14.3 µM (inactive); in the experiment on TK-10, 16.4 µM (inactive). Moreover, the GI50 in the experiment with SK-MEL-28 was 17.5 µM (inactive); in the experiment with SF-539 it was 17 µM (inactive); with MCF7, 13 µM (inactive); with Hs-578T, 15.2 µM (inactive); in the experiment with EKVX, 10.9 µM (inactive); in the experiment on HOP-92, 14.2 µM (inactive). For the same molecule, in the experiment with OVCAR-4, the GI50 is 11.4 µM (inactive).
For `O=C(CCCN1CCC2(CC1)CC(=O)N(N1CCCCCC1)C2=O)c1ccc(F)cc1`, the GI50 with A498 was 62.7 µM (inactive); in the experiment with SF-295 it was 27.6 µM (inactive); with NCI/ADR-RES, 18.2 µM (inactive); in the experiment with HCT-15, greater than 100 µM; in the experiment with UACC-257, 26.7 µM (inactive); in the experiment with HOP-62, 35.1 µM (inactive). In addition, the GI50 in the experiment with COLO 205 is > 100 µM (inactive); in the experiment on LOX IMVI it was 33.1 µM (inactive); with Malme-3M, 52.8 µM (inactive); in the experiment with MDA-MB-435 it was > 100 µM (inactive); with SF-268, > 100 µM (inactive); in the experiment with TK-10 it was > 100 µM (inactive). The GI50 in the experiment on SK-MEL-28 was > 100 µM (inactive); with SF-539, > 100 µM (inactive); in the experiment on MCF7, 46.2 µM (inactive); in the experiment with Hs-578T, 35.7 µM (inactive); with EKVX it was > 100 µM (inactive); in the experiment with OVCAR-4, 40.6 µM (inactive).
On to `N#Cc1c(N2CCN(c3ccc([N+](=O)[O-])cc3)CC2)[n+]([O-])c2ccc(-c3ccc([N+](=O)[O-])cc3)cc2[n+]1[O-]`, for which the GI50 in the experiment with A498 was > 100 µM (inactive); in the experiment on SF-295 it was 8.51 µM (inactive); in the experiment on NCI/ADR-RES it was 9.08 µM (inactive); in the experiment with HCT-15, greater than 85.5 µM; in the experiment on UACC-257, 16.4 µM (inactive); with HOP-62, 1.82 µM (inactive). Further, the GI50 with COLO 205 is 17.9 µM (inactive); in the experiment with LOX IMVI, 0.9 µM (active); in the experiment on Malme-3M, > 42 µM (inactive); with MDA-MB-435, 39.6 µM (inactive); with SF-268 it was > 100 µM (inactive); with TK-10 it was > 56.8 µM (inactive). Further, the GI50 in the experiment on SK-MEL-28 is > 89.3 µM (inactive); in the experiment with SF-539, 38.7 µM (inactive); with MCF7, > 100 µM (inactive); in the experiment on Hs-578T it was > 75.2 µM (inactive); in the experiment with EKVX, 7.28 µM (inactive); in the experiment on OVCAR-4 it was > 31.2 µM (inactive).
For `Cc1ccc2ccc(=O)oc2c1`, the GI50 in the experiment with A498, in the experiment on SF-295, in the experiment on NCI/ADR-RES, in the experiment on UACC-257, in the experiment on HOP-62 and in the experiment on COLO 205 was > 100 µM (inactive) throughout. The GI50 in the experiment on LOX IMVI, with Malme-3M, in the experiment on MDA-MB-435, in the experiment with SF-268, in the experiment on TK-10 and with SK-MEL-28 was > 100 µM (inactive) in each case. The GI50 in the experiment on SF-539, in the experiment on MCF7, in the experiment on Hs-578T, with EKVX, in the experiment on HOP-92 and with OVCAR-4 was > 100 µM (inactive) each time.
